Assay results published in patent US8642759B2, “Benzene sulfonamide thiazole and oxazole compounds” (GlaxoSmithKline LLC, priority 2008, dated 2014).
Where two headings read alike, the source gives them in different places.

Legend:
[1] = system: cancer cell lines encoding B-Raf V600E mutation; assay: 3 day proliferation assay, panel of 22 cancer cell lines encoding B-Raf V600E; assay type: cell-based; conditions: count of cell lines of the panel of 22
A375P F11s = assay: Dose dependent tumor inhibition, A375P F11s subcutaneous xenograft; assay type: in vivo, athymic mice; set-up: key: −: indicates no response; +: indicates growth delay (1-2× doubling); ++: indicates growth delay (>2× doubling); +++: indicates stable disease; ++++: indicates partial regression; +++++: indicates complete regression; conditions: oral, 14-day period
Description: A375P F11s were cultured in RPMI 1640 medium supplemented with 10% fetal bovine serum, 1% Penicillin-streptomycin and 1% sodium pyruvate. Tumor cells (2×10^6 A375P F11s) were implanted subcutaneously into the right flank of athymic mice on Day 1. To facilitate their growth, A375P F11s cells were suspended in Matrigel diluted 1:1 in phosphate-buffered saline before implantation. When tumors had reached approximately 200 mm^3 in volume (Day 19-22), tumor-bearing mice were randomized into study groups (n=7 or 8). Animals were dosed orally once or twice daily for a 14-day period. […] Tumor growth was measured twice a week using calipers for the duration of the study. Tumor volumes were calculated as a product of (length×width×width)/2 and median values were used to compare groups. Complete regressions (CR) were defined as three consecutive tumor measurements of ≦13.5 mm^3. Partial regressions were defined as three consecutive measurements of ≦50% of starting tumor volume. Tumor growth delay was defined as the difference in time taken for treated and control groups to reach 1000 mm^3 (T-C1000).

[2] = molecular target: T1, His6-tagged BRAFV600E full-length (amino acids 2-766) (Homo sapiens, UniProt P15056, V600E); assay: biochemical; assay type: biochemical
T1 construct: BRAFV600E full-length (amino acids 2-766); His6; made in house
T1 sequence (P15056 2-766 V600E): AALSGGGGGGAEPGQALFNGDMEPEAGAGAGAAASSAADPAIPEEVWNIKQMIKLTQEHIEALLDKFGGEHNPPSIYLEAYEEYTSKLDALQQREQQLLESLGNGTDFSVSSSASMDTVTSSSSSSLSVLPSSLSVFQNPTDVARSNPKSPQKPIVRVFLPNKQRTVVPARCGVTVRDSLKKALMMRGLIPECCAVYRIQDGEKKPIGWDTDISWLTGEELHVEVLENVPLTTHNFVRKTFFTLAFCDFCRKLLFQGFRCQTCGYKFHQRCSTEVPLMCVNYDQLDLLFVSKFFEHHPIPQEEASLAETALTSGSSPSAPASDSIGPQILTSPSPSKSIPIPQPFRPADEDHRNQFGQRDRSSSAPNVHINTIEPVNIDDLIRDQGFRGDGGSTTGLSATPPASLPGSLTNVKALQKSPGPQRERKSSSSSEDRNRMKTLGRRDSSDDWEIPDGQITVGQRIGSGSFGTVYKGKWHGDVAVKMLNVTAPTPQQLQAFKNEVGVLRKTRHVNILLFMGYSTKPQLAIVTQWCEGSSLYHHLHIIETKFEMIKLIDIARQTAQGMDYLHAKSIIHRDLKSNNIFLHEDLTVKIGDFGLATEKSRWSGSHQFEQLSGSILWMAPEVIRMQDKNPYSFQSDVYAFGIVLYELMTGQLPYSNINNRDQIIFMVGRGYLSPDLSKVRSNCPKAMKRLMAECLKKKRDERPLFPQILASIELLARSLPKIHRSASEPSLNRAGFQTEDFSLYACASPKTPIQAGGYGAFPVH
Description: Compounds of the present invention were tested for B-Raf protein serine kinase inhibitory activity in a B-Raf Accelerated MEK ATPase assay (BRAMA). […] The BRAMA assay is a high sensitivity assay which measures an intrinsic MEK-mediated ATP hydrolysis uncoupled from downstream ERK phosphorylation by coupling the formation of ADP to NADH oxidation through the enzymes pyruvate kinase and lactate dehydrogenase. When ADP production is initiated by addition of catalytic amounts of an activated Raf enzyme and non-phosphorylated MEK, one observes robust ADP production concomitant with Raf-mediated phosphorylation of MEK. The method is disclosed in: C. Rominger, M. Schaber, E. May. Assay for B-Raf Activity Based on Intrinsic MEK ATPase Activity.

[3] = system: Human colon tumor cells (Colo205); assay: Cell growth inhibition assay (CellTiter-Glo), Colo205; assay type: cell-based; conditions: COLO 205, 72 h, 3 days incubation
Description: Human colon tumor cells (Colo205) were cultured in RPMI (Mediatech 50-020-PB) containing 10% FBS and 1% penicillin-streptomycin.
The next day, compounds were diluted as follow: For 96-well assays, 13.5 μL of compound in DMSO were diluted using nine (9) serial 1:3 dilutions of 4.5 μL in 9 μL of DMSO. Medium (270 μL/well of RPMI with 10% FBS and 1% penicillin-streptomycin) was added to the plates. Aliquots (7 μL) were added to cells in the final assay giving a final DMSO concentration of 0.2%. For 384-well assays, 15 μL of compound in DMSO were diluted using nine (9) serial 1:3 dilutions of 5 μL in 10 μL of DMSO, followed by a further dilution of 5 μL of compound with 95 μL of medium, of which 2 μL were added to cells in the final assay giving a final DMSO concentration of 0.2%. Cells were incubated at 37° C., 5% CO2 for 3 days.
Total ATP was measured (as a surrogate estimate of cell number) using CellTiter-Glo® reagent (Promega G7571). Briefly, plates were removed from the incubator and allowed to equilibrate to room temperature for 30 minutes. CellTiter-Glo® (25 μL or 55 μL for 384-well or 96-well assays, respectively) reagent was added to each well and plates were shaken on an orbital plate shaker for 2 minutes. Plates were incubated without shaking for a further 30 minutes and read on an LJL Analyst GT reader in luminometer mode with an integration time of 0.5 seconds per well. Percent inhibition of cell growth was calculated relative to DMSO vehicle-treated control wells.

[4] = system: Human melanoma cancer cells (SK-MEL-28); assay: Cell growth inhibition assay (CellTiter-Glo), SK-MEL-28; assay type: cell-based; conditions: SK-MEL-28, 72 h, 3 days incubation
[5] = Table 1a, highest pIC50 for the one or more runs
[6] = Table 1a, highest pIC50 for the one or more runs, read-out: B-Raf Activity
[7] = Table 1b (later runs), average pIC50 for the one or more runs, read-out: B-Raf plC50
[8] = Table 2a, read-out: Activity in Colo205 Tumor Cells
[9] = Table 2b (later runs), average for the one or more runs, read-out: IC50 for Colo205
[10] = Table 3a, read-out: Activity in SK-MEL-28 Tumor Cells
[11] = Table 3b (later runs), average for the one or more runs, read-out: IC50 for SK-MEL-28

With `CC(C)(C)c1nc(-c2cccc(NS(=O)(=O)c3c(F)cccc3F)c2F)c(-c2ccnc(N)n2)s1` [Example 58a, N-{3-[5-(2-Amino-4-pyrimidinyl)-2-(1,1-dimethylethyl)-1,3-thiazol-4-yl]-2-fluorophenyl}-2,6-difluorobenzenesulfonamide] the “cancer cell lines encoding B-Raf V600E not sensitive (gIC50>1000M)” value [1] was 4 out of 22, the “cancer cell lines encoding B-Raf V600E with intermediate response (gIC50≧100 nM and <1000 nM)” value [1] was 2 out of 22 and the Response (A375P F11s; 1 mg/kg qd) was “+”. For the same compound, the Response (A375P F11s; 10 mg/kg qd) was “++ (+)”, the Response (A375P F11s; 100 mg/kg bid) was “++++ (+)” and the Response (A375P F11s; 100 mg/kg qd) was “++++ (+)”. The Response (A375P F11s; 300 mg/kg bid) was “++++ (+)” and the Response (A375P F11s; 300 mg/kg qd) was “++++ (+)”.

`CC(C)c1nc(-c2ccc(F)c(NS(=O)(=O)c3c(F)cccc3F)c2)c(-c2ccnc(NCCN3CCOCC3)n2)s1` [Example 165] was tested, and the “B-Raf Activity” value [2, 5] was “++ (indicates at least one pIC50 measurement greater than 6 against B-Raf but no measurement greater than pIC50 of 7)”.

`CC(C)c1nc(-c2ccc(F)c(NS(=O)(=O)c3c(F)cccc3F)c2)c(-c2ccnc(NCCOCCO)n2)s1` [Example 166] was tested, and the “B-Raf Activity” value [2, 5] was “++ (indicates at least one pIC50 measurement greater than 6 against B-Raf but no measurement greater than pIC50 of 7)”.

For `CC(C)c1nc(-c2ccc(F)c(NS(=O)(=O)c3c(F)cccc3F)c2)c(-c2ccnc(NCCCCN(C)C)n2)s1` [Example 167], the “B-Raf Activity” value [2, 5] was “++ (indicates at least one pIC50 measurement greater than 6 against B-Raf but no measurement greater than pIC50 of 7)”.

`COCCCNc1nccc(-c2sc(C(C)C)nc2-c2ccc(F)c(NS(=O)(=O)c3c(F)cccc3F)c2)n1` [Example 168] was tested, and the “B-Raf Activity” value [2, 5] was “++ (indicates at least one pIC50 measurement greater than 6 against B-Raf but no measurement greater than pIC50 of 7)”.

With `CC(C)c1nc(-c2cccc(NS(=O)(=O)c3cc(F)ccc3F)c2F)c(-c2ccnc(NCCCNS(C)(=O)=O)n2)s1` [Example 195] the IC50 [2, 6] was less than 100 nM, the IC50 [2, 7] was no more than 3.16 nM and the IC50 [3, 8] was less than 100 nM. For the same compound, the IC50 [3, 9] was less than 100 nM, the IC50 [4, 10] was less than 100 nM and the IC50 [4, 11] was less than 100 nM.

`CC(C)c1nc(-c2cccc(NS(=O)(=O)c3cc(F)ccc3F)c2F)c(-c2ccnc(NCCCNC(=O)CO)n2)s1` [Example 196] showed an IC50 [2, 6] of less than 100 nM, an IC50 [2, 7] of no more than 3.16 nM and an IC50 [3, 8] of less than 100 nM. It also gave an IC50 [3, 9] of less than 100 nM, an IC50 [4, 10] of less than 100 nM and an IC50 [4, 11] of less than 100 nM.
